Laboratory results: US20100240748A1, “TETRAHYDRONAPHTHALEN-2-OL DERIVATIVES” (N. V. Organon, priority 2009, published 2010)

Tests used:
[1] = target: human estrogen receptor β (hERβ) (Homo sapiens, UniProt Q92731); test: ERβ transactivation bioassay in recombinant CHO cells (hERβ, rat oxytocin promoter, luciferase reporter); type: cell-based; conditions: for ERβ/ERα ratio: ERβ agonistic selectivity over ERα, transactivation data; for EC50: transactivation of luciferase in CHO cells co-transfected with hERβ, read-out: ERβ agonistic EC50
Description: (§1) The estrogenic and antiestrogenic activity of compounds was determined in an in vitro bioassay with recombinant Chinese hamster ovary (CHO) cells stably co-transfected with the human estrogen receptor α (hERα) or β receptor (hERβ), the rat oxytocin promoter (RO) and the luciferase reporter gene (LUC). The estrogenic activity of a test compound to stimulate the transactivation of the enzyme luciferase mediated via the estrogen receptors hERα or hERβ is expressed in nM. The assay was performed as described by De Gooyer et al., Steroids 68 (2003), 21-30.

[2] = tested on: acinar epithelium of the ventral prostate; test: short-term prostate apoptosis and proliferation model in castrated rats; type: in vivo, rat
Description: Selected compounds were tested in a short-term prostate apoptosis and proliferation model in castrated rats.
Intact mature male Wistar rats (350-400 g) were castrated and left to recover for 1 week. 7 days after the castration rats received a single subcutaneous injection of testosterone buciclate (TB), a long-acting testosterone ester, in arachis oil (20 mg/kg) with a volume of 1 ml/kg and were subsequently treated once daily orally for 3 days with the test substance at doses between 0 and 1000 μg/kg, dissolved in gelatin/mannitol and dosed with a volume of 1 ml/kg.
At the end of the experiment rats were euthanized, the prostates were removed, weighed and processed for histology.
Apoptosis of the acinar epithelium of the ventral prostate was determined with TUNEL ([…]) staining. Apoptotic cells show nuclear DNA fragmentation and the TUNEL assay end-labels the fragmented DNA by incorporating biotinylated dUTP at the 3′-OH DNA ends using the enzyme Terminal deoxynucleotidyl Transferase (TdT). Positively stained cells are counted per acinus (glandular unit) in the ventral prostate. Proliferation of the acinar epithelium of the ventral prostate was determined by immunohistochemical staining with an antibody directed against Ki67 (clone Mib5). Positively stained cells are counted per acinus (glandular unit) in the ventral prostate. Statistical significance is determined as compared to TB alone by one-way ANOVA.

[3] = metabolic stability in human hepatocytes; type: in vitro ADME; conditions: human, cryopreserved human hepatocytes (suspension); tetrahydronaphthalen-2-ol; 37° C., sampled 0-120 min, LC-MS/MS; read-out: Human hepatocyte T 1/2
Description: (§2) A number of compounds 9, 11 and 12 were tested on metabolic stability in human hepatocytes. The hepatic stability was compared to corresponding chroman compounds 25, 26 or 27 (see structures below).
(§3) Test compounds were diluted to 3 μM in incubation medium. Then 40 μl of the 3 μM test compounds was pipetted into a 96 well microtiter plate (flat bottom). Hepatocytes (stored at −140° C.) were thawed in a 37° C. water bath. The cells were resuspended into pre-warmed thawing medium and were centrifuged for 5 minutes at 50 g at room temperature. The supernatant was discarded and the remaining cell pellet was resuspended in warm incubation medium and diluted to 7.5 E5 cells/ml. Then 80 μl of the cell suspension was added to each well of the 96 well microtiter plate containing the test compounds. The resulting mixture was incubated at 37° C. and was sampled at t=0, 5, 30, 60, and 120 min. The samples were analyzed by LC-MS/MS to determine the content of unchanged test compound. Based on the rate of reduction of the content of test compound over time, the half-live (T½) was calculated.

[4] = target: T1, human estrogen receptor α (hERα) (Homo sapiens, UniProt P03372); test: ERα transactivation bioassay in recombinant CHO cells (hERα, rat oxytocin promoter, luciferase reporter); type: cell-based; conditions: ratio of activities of eutomer and distomer on ERα
T1 sequence (P03372 1-595): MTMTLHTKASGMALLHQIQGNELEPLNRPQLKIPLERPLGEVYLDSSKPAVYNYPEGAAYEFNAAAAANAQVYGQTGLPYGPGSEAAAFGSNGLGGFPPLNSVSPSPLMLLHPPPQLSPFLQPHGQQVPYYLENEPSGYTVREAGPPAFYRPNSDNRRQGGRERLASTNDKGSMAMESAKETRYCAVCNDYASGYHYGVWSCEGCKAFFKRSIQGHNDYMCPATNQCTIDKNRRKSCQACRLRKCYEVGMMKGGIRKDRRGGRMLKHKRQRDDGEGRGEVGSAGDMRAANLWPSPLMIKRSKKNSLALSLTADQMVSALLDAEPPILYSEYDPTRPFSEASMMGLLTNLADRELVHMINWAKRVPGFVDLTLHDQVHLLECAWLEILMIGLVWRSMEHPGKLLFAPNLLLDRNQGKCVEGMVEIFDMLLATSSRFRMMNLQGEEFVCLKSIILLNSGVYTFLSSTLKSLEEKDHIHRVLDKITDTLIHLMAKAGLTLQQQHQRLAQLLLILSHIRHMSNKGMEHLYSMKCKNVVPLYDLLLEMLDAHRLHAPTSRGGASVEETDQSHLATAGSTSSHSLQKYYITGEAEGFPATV
Description: as §1

[5] = tested on: human hepatocytes; test: metabolic stability in human hepatocytes; type: in vitro ADME; conditions: tetrahydronaphthalen-2-ol; 37° C., sampled 0-120 min, LC-MS/MS
Description: as §2, §3

human estrogen receptor β (hERβ), sequence (Q92731 whole entry): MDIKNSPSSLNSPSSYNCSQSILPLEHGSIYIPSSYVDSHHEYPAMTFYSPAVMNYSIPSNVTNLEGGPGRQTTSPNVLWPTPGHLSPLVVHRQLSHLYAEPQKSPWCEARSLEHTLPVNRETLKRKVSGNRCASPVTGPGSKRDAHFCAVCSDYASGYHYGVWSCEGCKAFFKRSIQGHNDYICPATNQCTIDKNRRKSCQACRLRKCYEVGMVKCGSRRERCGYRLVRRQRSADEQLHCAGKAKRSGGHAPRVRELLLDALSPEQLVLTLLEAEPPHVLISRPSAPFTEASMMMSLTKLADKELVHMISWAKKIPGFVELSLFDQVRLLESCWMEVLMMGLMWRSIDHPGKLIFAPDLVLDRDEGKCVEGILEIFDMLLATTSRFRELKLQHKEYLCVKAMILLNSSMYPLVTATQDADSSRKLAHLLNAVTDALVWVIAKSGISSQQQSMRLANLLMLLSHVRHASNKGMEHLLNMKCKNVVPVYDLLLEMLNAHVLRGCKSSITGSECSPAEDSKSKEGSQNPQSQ

| Compound | ERβ/ERα ratio [1] | EC50 [1] [nM] | half-life at 1 µM [3] [min] | other results |
| --- | --- | --- | --- | --- |
| CCC1C(c2ccc(O)c(F)c2)Cc2ccc(O)cc2C1Cc1ccccc1F (racemic) [Compound 9q, 7-ethyl-6-(3-fluoro-4-hydroxyphenyl)-8-(2-fluorobenzyl)-5,6,7,8-tetrahydronaphthalen-2-ol] | >67 | 1.5 |  |  |
| C[C@H]1[C@@H](c2ccc(O)cc2)Cc2ccc(O)cc2[C@H]1Cc1ccccc1F (single isomer, unassigned) [Compound 11a] |  |  |  | epithelial cell proliferation ([2]; at 3 μg/kg, Ki67 staining, compared to TB-alone treated rats): decrease in epithelial cell proliferation; minimal active dose (MAD), increase in epithelial cell apoptosis ([2]; castrated Wistar rats with testosterone buciclate, once daily orally for 3 days, TUNEL staining, ventral prostate): 3 µg/kg; epithelial cell apoptosis ([2]; castrated rats, TUNEL staining, compared to TB alone, one-way ANOVA): statistically significant (p<0.01) increase in epithelial cell apoptosis |
| C[C@H]1[C@@H](c2ccc(O)cc2)Cc2ccc(O)cc2[C@H]1Cc1c(F)cccc1F (single isomer, unassigned) [Compound 11i] |  |  | 29.4 |  |
| C[C@@H]1[C@H](c2ccc(O)cc2)Cc2ccc(O)cc2[C@@H]1Cc1c(F)cccc1F (single isomer, unassigned) [Compound 12i] |  |  | 33.7 |  |
| CC[C@@H]1[C@H](c2ccc(O)c(F)c2)Cc2ccc(O)cc2[C@@H]1Cc1ccccc1F (single isomer, unassigned) [Compound 12q] |  |  | > 120 |  |
| (6S,7S,8S)-7-ethyl-6-(3- fluoro-4-hydroxyphenyl)- 8-(2-fluorobenzy1)-5,6, 7,8-tetrahydro- naphthalen-2-ol [Compound 11q] | >169 | 0.59 |  | ERβ eudismic ratio ([1]; ratio of activities of eutomer and distomer on ERβ): 7; ERα eudismic ratio [4]: <0.3; Human hepatocyte T 1/2 [5]: 82.2 min |
